Reference: patent US20230137491A1, “PEPTIDES AND USES THEREOF” (SINTICA BIOTECH SOCIETÀ A RESPONSABILITÀ LIMITATA …, priority 2020, published 2023)
Non-standard residues stand in square brackets, D forms with d.

Tests used:
[1] = tested on: melanoma cell lines (WM115, WM266-4, SKmel28, WM793B, 1205Lu); assay: MTT assay in melanoma cell lines; assay type: cell-based, human; conditions: for proliferation (MTT assay) with NSAID: WM115, WM266-4 and SKMEL28, increasing concentrations, 48 hrs
Description: 5×10^3 cells/well were seeded in 96-well culture plates. At different time points, cells were incubated with 0.5% MTT (3-(4,5-dimethylthiazol-2-yl)-2,5-diphenyltetrazolium bromide) for 4 h at 37° C. and then dissolved with 100 μl Isopropanol with 0.04N HCl. The plate was read at 560 nm with a reference filter of 650 nm. Results are expressed as viability percentage, as compared to control.
Five melanoma cell lines were used for testing the efficacy of XYZ or its non-PEGylated peptide component: WM115 and WM266-4, which are respectively the primary and metastatic melanoma derived from the same patient and expressing high levels of CD271, and SKme128, a metastatic melanoma cell line expressing low levels of CD271, WM793B, a primary melanoma, and 1205Lu derived from lung metastatic melanoma. The viability of the cell culture is assessed by MTT conversion. MTT solution is applied to the plates and placed into a cell culture incubator for 4 hours. The blue formazan metabolite produced by viable cells is then extracted into isopropanol and absorbance is measured at 570 nm using a spectrophotometer.

[2] = tested on: CD271 expression in melanoma cell lines; assay: CD271 protein expression by Western blotting and flow cytometry; assay type: cell-based, human; conditions: WM115, WM266-4 and SKMEL28, 1 to 2.5 mM, 48 h treatment
Description: FIG. 7. Chemotherapy up-regulates CD271 in primary and metastatic melanoma cell lines. (A) A real-time PCR using primers for intra- and extracellular CD271 receptor was performed on RNA extracts from three melanoma cell lines after treatment with carmustine (BCNU), cisplatin, dacarbazine (DTIC) or diluent. (B) Protein extracts from the three melanoma cell lines treated with different doses of cisplatin, carmustine, dacarbazine or diluent were separated on polyacrylamide gel and transferred onto nitrocellulose membranes. (C) Melanoma cell lines were treated with the chemotherapy or the diluent (see above) stained with anti CD271 mAb and analysed by flow cytometry.
FIG. 13. Non-steroid anti-inflammatory drugs (NSAID) enhance CD271 levels in melanoma cell lines. Three melanoma cell lines were treated with increasing doses of ketoprofen (A) or ibuprofen (B) and the percentage of CD271 positive cells was measured by flow cytometry.
Melanoma cell lines were treated with the chemotherapy or the diluent for 48 h, then were harvested and incubated with anti CD271 antibody (1:100 in PBS, Lab Vision Corporation, Thermo Fisher Scientific, Fremont, Calif., USA) for 20 min at 4° C. Cells were labeled with secondary antibody Alexa Fluor anti-mouse 488 (1:50, Thermo Fisher Scientific) for 20 min at 4° C. and analyzed with Epics XL flow cytometer (Beckman Coulter). […]

| Molecule | proliferation (MTT assay) with NSAID [1] | CD271 protein levels (percentage of CD271 positive cells, flow cytometry) [2] | cell proliferation (MTT assay) ([1]; five melanoma cell lines, 48 h and 96 h after treatment, no significant difference between PEGylated and non-PEGylated form) |
| --- | --- | --- | --- |
| CC(C)Cc1ccc(C(C)C(=O)O)cc1 (centres unmarked) [ibuprofen, reference compound] | dose-dependently decreases proliferation | increased CD271 protein levels | – |
| CC(C(=O)O)c1cccc(C(=O)c2ccccc2)c1 (centres unmarked) [ketoprofen, reference compound] | dose-dependently decreases proliferation | increased CD271 protein levels | – |
| Ac-[dM][dL]G[dI][dI][dA]G[dK][dN][dS]G-NH2 [non-PEGylated peptide] | – | – | reduce cell proliferation |
